Data taken from publication PMC10597491 (PLOS ONE, 2023).
Bridge positions count the residues as written; N and C are the ends. Ends that are not written are not given here.

Experiments:
[1] = molecular target: T1, cynomolgus IL-7Rα (Macaca fascicularis, UniProt Q38IC7); assay: Competition binding ELISA, cynomolgus IL-7Rα ECD; conditions: immobilized cynomolgus IL-7Rα-His6 ECD; biotinylated peptide/NA-HRP tracer; read-out: Competition ELISA IC50, IL-7Rα Cyno
T1 construct: cynomolgus IL-7Rα(aa 21–235)-His6, Sino Biological Cat# 90332-C08H; His6 (C); purchased Sino Biological 90332-C08H
T1 sequence (Q38IC7 21-235): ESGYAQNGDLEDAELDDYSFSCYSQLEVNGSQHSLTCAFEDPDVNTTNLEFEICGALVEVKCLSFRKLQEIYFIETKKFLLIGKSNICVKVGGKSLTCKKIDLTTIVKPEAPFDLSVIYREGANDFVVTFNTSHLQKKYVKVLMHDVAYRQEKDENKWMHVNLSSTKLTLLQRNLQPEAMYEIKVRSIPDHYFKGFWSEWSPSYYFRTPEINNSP
Text: (A, B) Determination of IC50 values in a competition ELISA for compound binding to human and cyno IL-7Rα and γc. The assay format is IL-7Rα-(His)6-tagged ECD or Fc-γc ECD immobilized on 96-well plates. Tracers are C-terminal biotinylated forms of the reference IL-7Rα and γc peptide ligands, each pre-complexed with Neutravidin-HRP (NA-HRP). (C, D) Label-free measurement of the equilibrium dissociation constant (KD) for peptide binding to IL-7Rα and γc extracellular domains with peptides was performed by biolayer interferometry as detailed in methods. Red lines depict 1:1 binding fit from Gator™ software. Blue lines represent individual BLI sensogram data taken every 0.1 seconds.
Binding was determined using a competition binding ELISA. Microtiter plates (Immulon 4HBX flat bottom 96-well) were coated with 50 μL of […] human ECDs: IL-7Rα(aa 21–236)-His6, Sino Biological Cat# 10975-H08H; cynomolgus IL-7Rα(aa 21–235)-His6, Sino Biological Cat# 90332-C08H; human IL-2Rα(aa 23–254)-Fc, Acro Cat# ILG-H5256; cynomolgus IL-2Rα(aa 23–254)-Fc, made in-house, in PBS overnight at 4°C. […] Plates were washed with cold wash buffer, and bound tracer was detected using TMB One Component HRP substrate and Stop Solution (Surmodics Cat# TMBW-1000-01 and LSTP-0100-01). Absorbance at 450 nm was read using Agilent BioTek Synergy HTX Multimode Reader.

[2] = molecular target: T2, IL-2/15Rβγc receptor (Homo sapiens, UniProt P31785); assay: IL-15-induced STAT activation in TF-1 cells expressing IL-2/15Rβ; assay type: cell-based; conditions: IL-15 at ~EC75; up to 10 μM MDK1472 or 5 μM MDK-703
T2 construct: pcDNA3.1 expression vector encoding full-length IL-2Rβ, IL-7Rα, IL-9Rα, or IL-21Rα; TF-1 cells naturally express γc and IL-4Rα; expressed in transfected cells
T2 sequence (P31785 23-369): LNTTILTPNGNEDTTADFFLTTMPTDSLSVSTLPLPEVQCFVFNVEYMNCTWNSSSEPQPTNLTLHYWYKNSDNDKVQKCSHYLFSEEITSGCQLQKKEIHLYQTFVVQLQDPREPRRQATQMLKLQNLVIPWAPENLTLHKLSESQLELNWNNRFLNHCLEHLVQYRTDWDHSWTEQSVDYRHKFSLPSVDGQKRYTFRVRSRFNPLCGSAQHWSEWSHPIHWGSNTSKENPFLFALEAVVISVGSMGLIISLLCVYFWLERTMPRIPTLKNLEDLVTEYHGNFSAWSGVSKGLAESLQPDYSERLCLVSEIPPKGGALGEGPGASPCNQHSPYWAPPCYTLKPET
Description: There is no detectable effect of the novel agonists on the activation of any of the other receptors of the γc family.
Cells were deprived of growth factors by overnight incubation at 5×10^5 cells/mL in starvation medium (RPMI 1640 + 4.5 g/L glucose + 0.2% FBS + 2 mM L-glutamine + 1 mM NaPyr + 10 mM HEPES + 0.5x penicillin-streptomycin with no cytokine supplement) in T75 flasks. For assays, cells were plated in 96-well V-bottom plates at 2×10^5 cells/well. Three-fold serial dilutions in starvation medium of the test compounds or cytokine were added to the cells and incubated for 30 min at 37°C. Following incubation, cell extracts were prepared by adding a mixture of 10x Cell Lysis Buffer (Cell Signaling Technology Cat# 9803) and 100x HALT Phosphatase and Protease Inhibitor Cocktail (Thermo Fisher Cat# 78442) directly to the wells. The plates were agitated at 25°C for 5 min to prepare cell extracts for immediate use or to be stored at -80°C until assay. […]
TF-1-derived lines separately expressing each gamma common family private receptor were starved overnight at 5x10^5 cells/mL. The following day, the cells were counted and plated at 2x10^6 cells/well in 96-well plates. […] Cell extracts were prepared and analyzed for pSTAT3, pSTAT5, or pSTAT6 accumulation with Pathscan pSTAT ELISA kits as described above.

[3] = test system: rested human CD8+ T-cells; conditions: IL-7-treated CD8+ cells, over 6 hours at 37°C; cited from earlier work
Text: Internalization of the ternary signaling complex also depletes the local ...

IC50 [1] [nM] | Substance | inhibition of IL-15 activation [2] | disappearance of surface IL-7Rα [3]
190 | Ac-GWGIPWCTLDPGSLQCAWLGKHGGGGSGGVVCQDWEGVELCWQGG (disulfide 7-16, 32-41) [MDK1472] | neither MDK1472 nor MDK-703 exhibit inhibition | 
 | IL-7: human IL-7 cytokine (Peprotech) |  | ~ 80%
